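Compound exposure: 48 hours, 5 concentrations, 96-well plates. Definition used: TGI = concentration required for complete inhibition of growth.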

Some test systems named below: COLO 205 colon; 786-0 renal; DU-145 prostate; OVCAR-3 ovarian; MALME-3M melanoma; ACHN renal; HCT-116 colon; T-47D breast; NCI/ADR-RES ovarian; IGROV1 ovarian; SR leukemia.
What all share (test): NCI tumour cell line growth inhibition, 48 h

On to `CNc1ncnc2c1nc(NC1CCCC1)n2C1OC(CO)C(O)C1O` (configuration not stated), for which the TGI in the assay with COLO 205 colon, with 786-0 renal, in the assay on DU-145 prostate, with OVCAR-3 ovarian, in the assay with MALME-3M melanoma and in the assay with ACHN renal was over 100 µM throughout. Also, the TGI with HCT-116 colon, with T-47D breast and in the assay with NCI/ADR-RES ovarian was over 100 µM in each case.
With `O=c1[nH]c(NCc2ccc(Cl)cc2)nc2nc[nH]c12`, the TGI in the assay on COLO 205 colon, with 786-0 renal, with DU-145 prostate, with OVCAR-3 ovarian, in the assay with MALME-3M melanoma and in the assay on ACHN renal was over 100 µM each time. The TGI in the assay on HCT-116 colon, in the assay on T-47D breast, in the assay with IGROV1 ovarian and with NCI/ADR-RES ovarian was over 100 µM each time.
For the molecule `COc1ccccc1C1(c2c(OC)c(=O)c2=O)SCCCS1`, the TGI in the assay on COLO 205 colon, with 786-0 renal, with DU-145 prostate, in the assay with OVCAR-3 ovarian, with MALME-3M melanoma and in the assay on ACHN renal was over 100 µM in each case. The TGI with HCT-116 colon, in the assay on T-47D breast, in the assay on IGROV1 ovarian and in the assay on NCI/ADR-RES ovarian was over 100 µM each time.
Regarding `C=C1C(=O)O[C@H]2C[C@@H]1[C@@H](O)[C@H](O)[C@@H](C)CCCC(C)=CCC[C@@]2(C)O`, the TGI in the assay with COLO 205 colon was 28.2 µM; in the assay with SR leukemia it was over 100 µM; in the assay on 786-0 renal, 52 µM; in the assay on DU-145 prostate, over 100 µM; in the assay on OVCAR-3 ovarian it was 28.5 µM; in the assay with MALME-3M melanoma it was 32.2 µM. The TGI with ACHN renal is 27.8 µM; in the assay on HCT-116 colon, 51.8 µM; in the assay with T-47D breast, 57.1 µM; with IGROV1 ovarian, over 100 µM.
Regarding `O=C(Nc1ccc(S(=O)(=O)/N=c2\ncccn2C(=O)C(C(F)(F)F)C(F)(F)F)cc1)C(C(F)(F)F)C(F)(F)F`, the TGI in the assay on COLO 205 colon, with 786-0 renal, with DU-145 prostate, in the assay with OVCAR-3 ovarian, in the assay with MALME-3M melanoma and with ACHN renal was over 100 µM each time. Moreover, the TGI in the assay on HCT-116 colon, in the assay with T-47D breast, in the assay on IGROV1 ovarian and with NCI/ADR-RES ovarian was over 100 µM throughout.
In the case of `COc1cc(-c2c3c(cc4c2OCO4)[C@@H](Nc2ccc(-c4ccc(-c5ccc(N[C@@H]6c7cc8c(cc7C(c7cc(OC)c(O)c(OC)c7)[C@H]7C(=O)OC[C@H]67)OCO8)cc5)cc4)cc2)[C@H]2COC(=O)[C@@H]2C3)cc(OC)c1O` (some centres not stated), the TGI came out at 3.34 µM in the assay on COLO 205 colon; 6.22 µM with 786-0 renal; 4.74 µM in the assay with DU-145 prostate; 4.85 µM in the assay with OVCAR-3 ovarian; 7.4 µM with MALME-3M melanoma; 11.3 µM in the assay on ACHN renal. Besides, the TGI came to 3.19 µM with HCT-116 colon, 65.2 µM in the assay on T-47D breast, 2.68 µM in the assay on IGROV1 ovarian and 5.92 µM in the assay with NCI/ADR-RES ovarian.
As to `C=C(Cl)C(Cl)(CCl)CCC(Br)C(C)(C)Br` (configuration not stated), the TGI with COLO 205 colon, in the assay on SR leukemia, with 786-0 renal, in the assay on DU-145 prostate, with OVCAR-3 ovarian and in the assay with ACHN renal was over 10 µM each time. Also, the TGI in the assay on HCT-116 colon, with T-47D breast and in the assay on IGROV1 ovarian was over 10 µM each time.
For the molecule `Cc1cc(S(=O)(=O)Nc2n[nH]c(N)n2)c(Cl)cc1Cl`, the TGI in the assay with COLO 205 colon, with 786-0 renal, with DU-145 prostate, with OVCAR-3 ovarian, in the assay with MALME-3M melanoma and in the assay with ACHN renal was over 10 µM throughout. For the same molecule, the TGI with HCT-116 colon, in the assay with T-47D breast, in the assay on IGROV1 ovarian and in the assay with NCI/ADR-RES ovarian was over 10 µM each time.
On to `COc1ccc(-c2c(-c3ccccc3)c(C)nc3nc(SC)nc(SC)c23)cc1OC`, for which the TGI was 27.9 µM in the assay with COLO 205 colon; 2.6 µM in the assay with SR leukemia; over 100 µM in the assay on DU-145 prostate; over 100 µM with OVCAR-3 ovarian; 38.5 µM in the assay on MALME-3M melanoma; over 100 µM in the assay on ACHN renal. Also, the TGI is 32.2 µM in the assay on HCT-116 colon, over 100 µM in the assay with T-47D breast and over 100 µM in the assay with IGROV1 ovarian.
With `C/C(=N\Nc1nc2ccccc2s1)c1cc2ccccc2cn1`, the TGI was 13.3 µM in the assay with COLO 205 colon; 9.35 µM in the assay with 786-0 renal; 12.6 µM in the assay on DU-145 prostate; 6.96 µM in the assay with OVCAR-3 ovarian; over 100 µM with MALME-3M melanoma; over 100 µM in the assay on ACHN renal. Moreover, the TGI came out at 10.6 µM with HCT-116 colon, 23.2 µM in the assay on T-47D breast, 16 µM in the assay on IGROV1 ovarian and 42 µM in the assay with NCI/ADR-RES ovarian.
Consider `CC(=O)NC1=NC(=O)/C(=C/c2ccc(/C=C3/C(=O)N=C(NC(C)=O)N3C)cc2)N1C`, for which the TGI in the assay on COLO 205 colon, in the assay with 786-0 renal, in the assay on DU-145 prostate, in the assay with OVCAR-3 ovarian, in the assay with ACHN renal and in the assay with HCT-116 colon was over 100 µM each time. In addition, the TGI with T-47D breast, in the assay on IGROV1 ovarian and in the assay with NCI/ADR-RES ovarian was over 100 µM throughout.
For `CC(=O)OC1[C@H](OC(C)=O)C2=C(C)[C@@H](OC(C)=O)C[C@@]2(C(C)(C)O)[C@@H](OC(C)=O)[C@H]2[C@@]1(C)[C@@H](OC(C)=O)CC(OC(C)=O)[C@]21CO1` (some centres not stated), the TGI in the assay with COLO 205 colon, in the assay with SR leukemia, in the assay on 786-0 renal, with DU-145 prostate, in the assay on OVCAR-3 ovarian and in the assay with MALME-3M melanoma was over 100 µM in each case. In addition, the TGI in the assay with ACHN renal, in the assay with HCT-116 colon and with T-47D breast was over 100 µM in each case.
For the molecule `C[C@@H]1CC(=O)C[C@@H]2CC[C@H]3[C@@H]4CC[C@H](OC(=O)c5cccc6cc7ccccc7nc56)[C@H]4CC[C@@H]3[C@H]21`, the TGI came out at 53.8 µM in the assay on COLO 205 colon; 23.5 µM in the assay with 786-0 renal; 28.7 µM with DU-145 prostate; 29.8 µM in the assay on OVCAR-3 ovarian; 22.8 µM in the assay with MALME-3M melanoma; 29.3 µM with ACHN renal. The TGI with HCT-116 colon came out at 27.1 µM; in the assay with T-47D breast, 37.5 µM; in the assay with IGROV1 ovarian, 19.2 µM; in the assay on NCI/ADR-RES ovarian, 55.1 µM.
Consider `Cn1c(=O)c2c(nc3sc4ccccc4c(=O)n32)n(C)c1=O`, for which the TGI in the assay with COLO 205 colon, in the assay on 786-0 renal, in the assay on DU-145 prostate, with OVCAR-3 ovarian, in the assay with ACHN renal and in the assay on HCT-116 colon was over 100 µM throughout. Besides, the TGI in the assay with T-47D breast, with IGROV1 ovarian and in the assay with NCI/ADR-RES ovarian was over 100 µM each time.
Turning to `CC(C)(NC(=O)OCc1ccccc1)C(=O)OC(=O)C(C)(C)NC(=O)OCc1ccccc1`, the TGI with COLO 205 colon, in the assay on 786-0 renal, in the assay on OVCAR-3 ovarian, with MALME-3M melanoma, with ACHN renal and in the assay with HCT-116 colon was over 100 µM each time. The TGI in the assay on T-47D breast, in the assay on IGROV1 ovarian and in the assay on NCI/ADR-RES ovarian was over 100 µM each time.
As for `CCCCOC(=O)C1CC[C@H]2[C@@H]3CCc4cc(OC(=O)c5cccc6c(=O)c7ccccc7[nH]c56)ccc4[C@H]3CC[C@]12C` (some centres not stated), the TGI in the assay on COLO 205 colon came out at 13.8 µM; in the assay on 786-0 renal, 17 µM; in the assay with DU-145 prostate, 14.9 µM; with OVCAR-3 ovarian it was 15.3 µM; in the assay with MALME-3M melanoma, 18.7 µM; in the assay on ACHN renal it was 15.6 µM. Further, the TGI with HCT-116 colon was found to be 17.1 µM; in the assay on T-47D breast, 14.1 µM; in the assay on IGROV1 ovarian, 14.9 µM; in the assay on NCI/ADR-RES ovarian, 24.3 µM.
In the case of `COc1cc2c(cc1OC)C(=O)/C(=C/c1cc(C)cc(C)c1)C2`, the TGI is 0.346 µM with COLO 205 colon; over 44.6 µM in the assay with 786-0 renal; 6.23 µM in the assay with DU-145 prostate; 1.04 µM with OVCAR-3 ovarian; over 100 µM in the assay with ACHN renal; 11.6 µM in the assay on HCT-116 colon. In addition, the TGI in the assay on T-47D breast was 45.6 µM; in the assay on IGROV1 ovarian, over 42.4 µM; in the assay with NCI/ADR-RES ovarian, over 38 µM.
For `O=C(O)c1nc2ccc(C(F)(F)F)cc2nc1Nc1ccc(F)cc1`, the TGI with COLO 205 colon was 44.1 µM; in the assay on SR leukemia it was 36.8 µM; with 786-0 renal it was 54.5 µM; with DU-145 prostate it was 85 µM; in the assay on OVCAR-3 ovarian, 60.8 µM; with MALME-3M melanoma it was 38.3 µM. Besides, the TGI was over 100 µM with ACHN renal, 35 µM in the assay on HCT-116 colon, 62.6 µM in the assay on IGROV1 ovarian and 84.7 µM with NCI/ADR-RES ovarian.
As for `O=c1c(Cc2ccc(Cl)cc2)nnc2sc(-c3ccc(-c4ccc(Cl)cc4Cl)o3)nn12`, the TGI with COLO 205 colon, with 786-0 renal, in the assay with DU-145 prostate, in the assay on OVCAR-3 ovarian, in the assay on MALME-3M melanoma and in the assay with ACHN renal was over 100 µM throughout. Besides, the TGI with HCT-116 colon, in the assay on T-47D breast, in the assay with IGROV1 ovarian and in the assay on NCI/ADR-RES ovarian was over 100 µM throughout.

(Values after PubChem BioAssay (NCI).)
